According to patent US11759480B2, “Compositions and methods for CAR T cell therapy” (ENDOCYTE, INC., priority 2017, dated 2023):
Like-named read-outs stand apart in the source and are kept apart here.

Columns and labels:
[1] = test system: MDA-MB-231 tumors; assay type: in vivo, NSG mice
Description: MDA-MB-231 tumors were generated by subcutaneous implantation of cultured cells at 2×10^6 in NSG mice.
FITC-CAR-T cells were prepared as described previously. After culturing in-vitro for 12-20 days, they were frozen and stored at −80° C. in a freezing reagent containing 50% heat-inactivated AB+ human serum, 40% T cell culture media, and 10% DMSO. Frozen CAR-T cells were quickly thawed at 37° C., washed twice with PBS, and used for animal injection.
In general, EC17/CAR-T therapy initiated when mouse tumors reached ˜200-250 mm^3 and weekly EC17 doses at 500 nmol/kg started 2 days after the CAR-T administration. All EC17 doses were given towards the end of day (˜3-4 PM) to allow cytokine release syndrome (CRS) to develop overnight. Sodium fluorescein rescue at various doses (0.06-60 μmol/kg) was administrated after the first dose of EC17, when the animals experienced a severe CRS of grade 3-4 on a 0-5 grading scale (FIG. 31). Plasma samples at various time points (3-27 hours) post sodium fluorescein rescue were collected for multiplex cytokine analysis.
Approximately 48 hours after CAR-T cell infusion, mice were separated into 3 groups. The first group (#1) was not dosed with EC17 and served as the CAR-T cell control, the second (#2) and the third (#3) groups were intravenously injected with a single dose of EC17 (500 nmol/kg). […] Group #2 then received a single intravenous sodium fluorescein (60 μmol/kg) while group #3 was left un-rescued. […] Three satellite animals from each group were euthanized to collect blood and organs for cytokine analysis and organ toxicity evaluation. Whole blood was obtained via cardiac puncture and collected into EDTA containing tubes. Twenty-seven hours after sodium fluorescein rescue, mice rescued with 60 μmol/kg sodium fluorescein in group #2 were recovering and sCRS scale decreased to grade 2, while mice without rescue in group #3 had worse sCRS (grade 3-4). At this time, 6 satellite mice from each group were euthanized for blood collection and organ evaluation. The remaining mice were dosed with a single dose of 500 nmol/kg EC17 every week if desired, and the EC17 dosing dates were labeled in FIG. 36 as dashed vertical lines occurring after the notation “EC17”. Tumor volume and body weight changes were monitored 2-3 times per week.
To evaluate whether a lower level of sodium fluorescein can also rescue mice under sCRS, the same rescue study was performed except that sodium fluorescein was dosed at 0.06, 0.6, and 6 μmol/kg.

[2] = test system: s.c. MDA-MB-231 tumors; test: EC17 dose escalation cycles versus weekly dosing (Example 45); assay type: in vivo, mice
Description: The effect of EC17 dose de-escalation was investigated on the anti-tumor activity and the toxicity (body weight changes) of CAR-T therapy. 8.5 million frozen anti-FITC CAR-T cells were thawed and i.v. injected into mice bearing s.c. MDA-MB-231 tumors (100-200 mm3). 500 nmol/kg EC17 was administered 2 days after CAR-T injection and caused sCRS in mice. […] The first group was dosed with 500 nmol/kg EC17 weekly (SIW), whereas the second group was dosed with two EC17 escalation cycles. Each cycle lasted for 2 weeks (14 days). The dosing schedule in each cycle included 5 nmol/kg EC17 at day 1, 50 nmol/kg EC17 at day 3, 500 nmol/kg EC17 on day 5. After 9 days break, the second escalation cycle started. Tumor sizes and body weights were monitored 2-3 times per week.

Compound	recovery ([1]; 0.06 μmol/kg)	recovery ([1]; 6 μmol/kg)	time to near normal range of IFN-γ ([1]; 60 μmol/kg) [h]	time to normal range of IL-2, TNF-α, IL-3, GM-CSF, IL-6 ([1]; 60 μmol/kg) [h]	human cytokine levels in blood ([1]; 60 μmol/kg, 7 hours and 27 hours post rescue)	sCRS severity ([1]; 0.06, 0.6, 6 μmol/kg, ~8.3 million CAR-T)	sCRS grade ([1]; 7 hours after 60 μmol/kg rescue, 0-5 grading scale)	sCRS grade ([1]; 27 hours after 60 μmol/kg rescue) [grade]	lung edema ([1]; 27 hours after rescue, 60 μmol/kg)	median effective dose (human cytokine levels in mouse blood) ([1]; IL-2, TNF-α, IFN-γ etc.)	earliest cytokine response post rescue ([1]; key cytokines) [h]	effect on anti-tumor activity of EC17/CAR-T therapy ([1]; one dose 6 μmol/kg)	effect on CAR-T anti-tumor activity ([1]; one dose 60 μmol/kg)	rescue from sCRS ([2]; 6 umol/kg)	tumor growth ([1]; 500 nmol/kg SIW, ~10.4 million FITC-CAR-T)	body weight loss of escalation group ([2]; cycles of 5, 50, 500 nmol/kg at day 1, 3, 5)
O=C([O-])c1ccccc1-c1c2ccc(=O)cc-2oc2cc([O-])ccc12.[Na+].[Na+] [sodium fluorescein]	slowest recovery	recovered the fastest	27	7	much lower than those in un-rescued mice	dose-dependent reduction of sCRS severity	low grade 3	2	lung edema was improved	about 0.6 μmol/kg	3	didn't affect the anti-tumor activity	did not interfere with CAR-T anti-tumor activity in vivo	successfully rescued		
Nc1nc2ncc(CNc3ccc(C(=O)NC(CCC(=O)NCCNC(=S)Nc4ccc(-c5c6ccc(=O)cc-6oc6cc(O)ccc56)c(C(=O)O)c4)C(=O)O)cc3)nc2c(=O)[nH]1 (stereo not shown) [EC17, FITC-Folate]															started to shrink and disappeared eventually	much less than that of the EC17 SIW group
